# Activity calls are given as the source filed them. The rule behind the calls is not given here.
# Columns and labels:
# [1] = Volume of distribution at steady state in mouse at 3 mg/kg, po or 1 mg/kg, iv measured upto 24 hrs by LC-MS/MS analysis; format: ADME, organism-based; conditions: in vivo
# [2] = Half life in mouse at 3 mg/kg, po or 1 mg/kg, iv measured upto 24 hrs by LC-MS/MS analysis; format: ADME, organism-based; conditions: in vivo
# [3] = biological target: Cytochrome P450 2D6 (Homo sapiens, UniProt P10635); test: Inhibition of CYP2D6 in human liver microsomes incubated for 5 mins in presence of NADPH by LC-MS/MS analysis; format: ADME, Microsome
# [4] = Drug concentration in SCID mouse plasma at 10 mg/kg, po administered once daily measured at 24 hrs by LC-MS/MS analysis; format: ADME, organism-based
# [5] = biological target: T1, Protein cereblon/Estrogen receptor (Homo sapiens, UniProt P03372+Q96SW2); test: PROTAC activity at CRBN/ERalpha in human MCF7 cells assessed as reduction in ERalpha protein level at 5 nM measured for 4 hrs by Western blot analysis; format: cell-based
# [6] = biological target: T1, Protein cereblon/Estrogen receptor; test: PROTAC activity at CRBN/ERalpha in human MCF7 cells assessed as reduction in ERalpha protein level at 0.3 nM measured at 4 hrs by Western blot analysis; format: cell-based
# [7] = biological target: T1, Protein cereblon/Estrogen receptor; test: PROTAC activity at CRBN/ERalpha in human T47D cells assessed as reduction in ERalpha protein level at 3 nM measured at 4 hrs by Western blot analysis; format: cell-based
# [8] = biological target: T1, Protein cereblon/Estrogen receptor; test: PROTAC activity at CRBN/ERalpha in human MCF7 cells assessed as reduction in ERalpha protein level at 1 nM measured at 4 hrs by Western blot analysis; format: cell-based
# [9] = biological target: T1, Protein cereblon/Estrogen receptor; test: PROTAC activity at CRBN/ERalpha in human MCF7 cells assessed as reduction ER level measured for 5 hrs by Western blot analysis; format: cell-based; conditions: dose 0.5-500 nM
# [10] = biological target: T1, Protein cereblon/Estrogen receptor; test: (§1) In-vivo PROTAC activity at CRBN/ERalpha in SCID mouse xenografted with human MCF7 cells assessed as reduction in ERalpha level in tumor at 30 mg/kg, po administered daily for 3 days and measured after 24 hrs by Western blot analysis; format: functional, organism-based; design: scale not given: the % may be the effect or the level left; conditions: time 96.0 hrs
# [11] = biological target: Cytochrome P450 2C19 (Homo sapiens, UniProt P33261); test: Inhibition of CYP2C19 in human liver microsomes incubated for 5 mins in presence of NADPH by LC-MS/MS analysis; format: ADME, Microsome
# [12] = biological target: T1, Protein cereblon/Estrogen receptor; test: PROTAC activity at CRBN/ERalpha in human MCF7 cells assessed as effect on GSPT1 level at 0.5 to 500 nM measured for 5 hrs by Western blot analysis; format: cell-based; conditions: dose 0.5-500 nM
# [13] = test system: Protein cereblon/Estrogen receptor (Homo sapiens), P03372+Q96SW2 [Y537S]; test: In vivo PROTAC activity at CRBN/ESR1 Y537S mutant in SCID mouse xenografted with human MCF7 cells assessed as reduction in ESR1 Y537S level in tumor at 10 to 30 mg/kg, po administered once daily for 3 days measured after 24 hrs by Western blot analysis; format: functional, organism-based; design: scale not given: the % may be the effect or the level left; conditions: dose 10-30 mg/kg, time […]
# [14] = Drug concentration in SCID mouse tumor at 10 mg/kg, po administered once daily for 3 days measured after 24 hrs by LC-MS/MS analysis; format: ADME, organism-based, Neoplasm
# [15] = Metabolic stability human liver microsome assessed as half life; format: ADME; conditions: microsomes
# [16] = Cmax in dog at 3 mg/kg, po or 1 mg/kg, iv measured upto 24 hrs by LC-MS/MS analysis; format: ADME, organism-based, Canis lupus familiaris; conditions: in vivo
# [17] = biological target: T2, Estrogen receptor (Homo sapiens, UniProt P03372); test: Binding affinity to human ERalpha receptor assessed as inhibition constant
# T2 sequence (P03372 whole entry): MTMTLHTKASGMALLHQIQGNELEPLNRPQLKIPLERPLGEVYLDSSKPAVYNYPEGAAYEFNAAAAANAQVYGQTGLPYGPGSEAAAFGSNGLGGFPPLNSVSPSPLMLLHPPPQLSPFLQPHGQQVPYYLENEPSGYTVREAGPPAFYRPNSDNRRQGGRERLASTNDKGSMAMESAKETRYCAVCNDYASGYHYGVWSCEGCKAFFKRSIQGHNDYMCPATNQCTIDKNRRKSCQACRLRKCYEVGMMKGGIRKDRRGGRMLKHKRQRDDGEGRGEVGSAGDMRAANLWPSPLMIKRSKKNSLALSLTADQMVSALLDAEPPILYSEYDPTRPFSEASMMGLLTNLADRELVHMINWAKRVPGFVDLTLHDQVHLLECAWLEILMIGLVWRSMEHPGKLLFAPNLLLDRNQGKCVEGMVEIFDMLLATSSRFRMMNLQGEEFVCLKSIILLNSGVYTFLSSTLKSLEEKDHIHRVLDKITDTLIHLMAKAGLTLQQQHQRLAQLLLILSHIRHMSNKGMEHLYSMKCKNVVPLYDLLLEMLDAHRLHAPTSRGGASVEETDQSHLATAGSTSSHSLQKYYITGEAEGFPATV
# [18] = Toxicity in SCID mouse implanted with human MCF7 cells ESR1 Y537S mutant assessed as change in body weight at 3 to 30 mg/kg, po administered 5 days a week for 7 weeks; format: organism-based; conditions: in vivo, 1176 h, dose 3-30 mg/kg
# [19] = biological target: Voltage-gated inwardly rectifying potassium channel KCNH2 (Homo sapiens, UniProt Q12809); test: Inhibition of hERG in HEK293 cells at 10 uM by whole-cell patch clamp assay relative to control; format: toxicity, cell-based; conditions: hek293, 10 µM
# [20] = biological target: T1, Protein cereblon/Estrogen receptor; test: In-vivo PROTAC activity at CRBN/ERalpha in SCID mouse xenografted with human MCF7 cells assessed as reduction in ERalpha level in tumor at 10 mg/kg, po administered daily for 3 days and measured after 6 hrs by Western blot analysis; format: functional, organism-based; design: scale not given: the % may be the effect or the level left; conditions: time 78.0 hrs
# [21] = test system: Protein cereblon/Estrogen receptor (Homo sapiens), P03372+Q96SW2 [Y537S]; test: In vivo PROTAC activity at CRBN/ESR1 Y537S mutant in SCID mouse xenografted with human MCF7 cells assessed as reduction in ESR1 Y537S level in tumor at 10 mg/kg, po measured after 24 hrs by Western blot analysis; format: functional, organism-based; design: scale not given: the % may be the effect or the level left
# [22] = Plasma protein binding in rat; format: ADME, cell-free
# [23] = biological target: T1, Protein cereblon/Estrogen receptor; test: PROTAC activity at CRBN/ERalpha in human MCF7 cells assessed as reduction in ERalpha protein level at 5 nM measured for 4 hrs in presence of cereblon ligand C1 by Western blot analysis; format: cell-based
# [24] = Drug concentration in SCID mouse tumor at 10 mg/kg, po administered once daily measured at 24 hrs by LC-MS/MS analysis; format: ADME, organism-based, Neoplasm; conditions: read-out: Ct
# [25] = Drug concentration in SCID mouse tumor at 30 mg/kg, po administered once daily for 3 days measured after 24 hrs by LC-MS/MS analysis; format: ADME, organism-based, Neoplasm; conditions: read-out: Ct
# [26] = biological target: T1, Protein cereblon/Estrogen receptor; test: as §1; format: functional, organism-based; design: scale not given: the % may be the effect or the level left; conditions: time 96.0 hrs; remark: listed apart in the source
# [27] = test system: T47D; test: PROTAC activity at CRBN/ ERalpha D538G mutant in human T47D cells assessed as reduction in ERalpha protein level at 10 to 100 nM measured at 7 hrs by Western blot analysis; format: cell-based; design: scale not given: the % may be the effect or the level left; conditions: dose 10-100 nM
# T1 sequence (Q96SW2 whole entry, looked up, one chain of several): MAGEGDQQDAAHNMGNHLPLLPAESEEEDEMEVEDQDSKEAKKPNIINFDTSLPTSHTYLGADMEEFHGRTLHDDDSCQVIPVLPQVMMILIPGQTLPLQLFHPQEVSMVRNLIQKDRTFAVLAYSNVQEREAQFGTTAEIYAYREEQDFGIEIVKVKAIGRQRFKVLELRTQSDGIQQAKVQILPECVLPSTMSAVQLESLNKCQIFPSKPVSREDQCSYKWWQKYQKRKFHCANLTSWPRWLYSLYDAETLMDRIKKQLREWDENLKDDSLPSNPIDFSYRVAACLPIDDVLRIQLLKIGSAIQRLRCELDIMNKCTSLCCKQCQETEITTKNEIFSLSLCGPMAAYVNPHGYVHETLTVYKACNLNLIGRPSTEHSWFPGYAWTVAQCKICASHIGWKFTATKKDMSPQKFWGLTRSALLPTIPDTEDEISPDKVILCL
# Cytochrome P450 2C19, sequence (P33261 whole entry): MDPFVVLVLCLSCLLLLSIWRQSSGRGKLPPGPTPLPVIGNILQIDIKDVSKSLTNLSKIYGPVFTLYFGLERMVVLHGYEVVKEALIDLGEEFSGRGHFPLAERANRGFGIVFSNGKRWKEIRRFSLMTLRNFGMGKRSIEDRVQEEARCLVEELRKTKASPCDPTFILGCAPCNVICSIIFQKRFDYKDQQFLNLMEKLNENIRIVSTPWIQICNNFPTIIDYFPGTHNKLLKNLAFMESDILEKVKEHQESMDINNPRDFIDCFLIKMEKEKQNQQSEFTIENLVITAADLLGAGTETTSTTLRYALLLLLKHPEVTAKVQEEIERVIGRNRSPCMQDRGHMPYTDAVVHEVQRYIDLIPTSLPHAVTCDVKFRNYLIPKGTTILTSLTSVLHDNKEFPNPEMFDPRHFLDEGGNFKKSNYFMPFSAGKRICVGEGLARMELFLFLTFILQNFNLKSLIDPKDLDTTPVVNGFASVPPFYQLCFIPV
# Voltage-gated inwardly rectifying potassium channel KCNH2, sequence (Q12809 whole entry): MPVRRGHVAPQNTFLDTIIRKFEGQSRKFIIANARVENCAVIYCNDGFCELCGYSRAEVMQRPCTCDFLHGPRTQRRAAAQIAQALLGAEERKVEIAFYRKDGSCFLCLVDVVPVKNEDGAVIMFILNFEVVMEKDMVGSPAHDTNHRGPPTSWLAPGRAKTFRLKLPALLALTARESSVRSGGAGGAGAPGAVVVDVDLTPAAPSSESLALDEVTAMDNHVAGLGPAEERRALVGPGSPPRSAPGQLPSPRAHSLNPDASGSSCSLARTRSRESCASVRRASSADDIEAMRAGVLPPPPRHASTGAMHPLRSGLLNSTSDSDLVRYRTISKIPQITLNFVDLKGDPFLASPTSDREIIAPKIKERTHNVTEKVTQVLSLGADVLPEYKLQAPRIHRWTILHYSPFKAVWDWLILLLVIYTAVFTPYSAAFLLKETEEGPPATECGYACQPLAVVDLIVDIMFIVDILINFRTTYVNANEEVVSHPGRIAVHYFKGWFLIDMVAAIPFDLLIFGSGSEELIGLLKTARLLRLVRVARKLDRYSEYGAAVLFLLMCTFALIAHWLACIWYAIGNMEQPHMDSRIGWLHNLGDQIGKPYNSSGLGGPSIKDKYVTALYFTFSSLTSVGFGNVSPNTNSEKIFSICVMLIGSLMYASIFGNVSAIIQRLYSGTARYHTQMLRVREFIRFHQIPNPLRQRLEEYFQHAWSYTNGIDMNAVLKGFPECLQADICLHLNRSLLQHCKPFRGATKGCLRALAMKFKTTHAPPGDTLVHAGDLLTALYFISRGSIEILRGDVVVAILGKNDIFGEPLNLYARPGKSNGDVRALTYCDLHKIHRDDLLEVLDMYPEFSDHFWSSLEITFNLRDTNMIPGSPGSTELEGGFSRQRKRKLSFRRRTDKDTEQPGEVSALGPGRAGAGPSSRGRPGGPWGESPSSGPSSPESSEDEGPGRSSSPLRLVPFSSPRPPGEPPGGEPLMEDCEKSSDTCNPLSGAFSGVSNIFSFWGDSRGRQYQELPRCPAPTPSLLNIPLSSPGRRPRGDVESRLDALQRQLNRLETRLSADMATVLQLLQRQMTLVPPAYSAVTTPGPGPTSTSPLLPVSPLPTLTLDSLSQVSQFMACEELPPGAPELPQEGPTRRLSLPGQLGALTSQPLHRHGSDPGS
# Cytochrome P450 2D6, sequence (P10635 whole entry): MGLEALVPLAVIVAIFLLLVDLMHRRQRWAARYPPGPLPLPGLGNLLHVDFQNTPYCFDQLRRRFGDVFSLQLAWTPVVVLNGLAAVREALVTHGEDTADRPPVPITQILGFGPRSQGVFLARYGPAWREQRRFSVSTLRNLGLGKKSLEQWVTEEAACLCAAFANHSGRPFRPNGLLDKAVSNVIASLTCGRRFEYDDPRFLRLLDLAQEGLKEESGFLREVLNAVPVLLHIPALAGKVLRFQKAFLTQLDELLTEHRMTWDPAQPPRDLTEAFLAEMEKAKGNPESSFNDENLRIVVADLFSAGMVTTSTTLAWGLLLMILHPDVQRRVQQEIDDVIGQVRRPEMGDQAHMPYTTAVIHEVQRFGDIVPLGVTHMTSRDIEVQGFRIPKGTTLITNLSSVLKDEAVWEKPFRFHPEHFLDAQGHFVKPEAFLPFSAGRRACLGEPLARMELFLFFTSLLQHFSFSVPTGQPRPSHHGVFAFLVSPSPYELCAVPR
structure (smiles),measurement,setting,value
O=C1CC[C@H](N2Cc3c(ccc4c3OCC43CCN(C[C@@H]4CCC5(CCN(c6ccc([C@@H]7c8ccc(O)cc8CC[C@@H]7c7ccccc7)cc6)CC5)OC4)CC3)C2=O)C(=O)N1,Vdss,[1],5.8 L/kg
same,t1/2,[2],13.3 h
same,IC50,[3],> 10 µM
same,concentration at 24 h,[4],7 ng/mL
same,Activity,[5],Active
same,Activity,[6],Active
same,Activity,[7],Active
same,Activity,[8],Active
same,Activity,[9],Dose-dependent-effect
same,Activity,[10],29%
same,IC50,[11],6 µM
same,Activity,[12],Minimal_effect
same,Activity,[13],74%
same,concentration at 96 h,[14],294 ng/mL
same,t1/2,[15],> 60 min
same,Cmax,[16],469.4 ng/mL
same,Ki,[17],0.95 nM
same,Activity,[18],Non-toxic
same,inhibition (INH),[19],43.7%
same,Activity,[20],66%
same,Activity,[21],71%
same,PPB,[22],95.7%
same,Activity,[23],inactive
same,concentration at 24 h,[24],94 ng/mL
same,concentration at 96 h,[25],1030 ng/mL
same,Activity,[26],71%
same,Activity,[27],> 80%

# — ChEMBL document CHEMBL6083286, “Discovery of ERD-12310A as an Exceptionally Potent and Orally Efficacious PROTAC Degrader of Estrogen Receptor α (ERα)” (J Med Chem, 2024)
